This note sets out measurements from patent US11851411B2, “Herbicidal compounds” (SYNGENTA CROP PROTECTION AG, priority 2018, dated 2023).

What all share (type): in vivo
For assay [1], the system named is Abutilon theophrasti (ABUTH). The assay is described as follows: Glasshouse herbicide test, post-emergence. The following applies: POST Application; 500 g/h; evaluated after 13 days. The method in brief:
(§1)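 Application rate was 500 g/h, delivered as an aqueous spray prepared from technical material in 50:50 acetone/water plus 0.5% Tween 20, either one day after sowing (pre-emergence) or after eight days of growth (post-emergence). Injury was rated on a five-point scale 13 days afterwards, with 5 denoting 80-100% damage.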

For assay [2], the system named is Amaranthus retoflexus (AMARE). Nature of the assay: Glasshouse herbicide test, post-emergence. The note with it: POST Application; 500 g/h; evaluated after 13 days. The method in brief:
as §1

Assay [3] concerns Echinochloa crus-galli (ECHCG). Nature of the assay: Glasshouse herbicide test, post-emergence. The note with it: POST Application; 500 g/h; evaluated after 13 days. The method in brief: as §1
Assay [4] deals with Ipomoea hederacea (IPOHE). The assay is described as follows: Glasshouse herbicide test, post-emergence. The following applies: POST Application; 500 g/h; evaluated after 13 days. The essentials: as §1
In assay [5] the test system is Setaria faberi (SETFA). The assay is described as follows: Glasshouse herbicide test, post-emergence. The following applies: POST Application; 500 g/h; evaluated after 13 days. The essentials: as §1
Assay [6] has as its system Abutilon theophrasti (ABUTH). Nature of the assay: Glasshouse herbicide test, pre-emergence. The note with it: PRE Application; 500 g/h; evaluated after 13 days. The method in brief:
as §1

Assay [7] has as its system Amaranthus retoflexus (AMARE). The assay is described as follows: Glasshouse herbicide test, pre-emergence. The note with it: PRE Application; 500 g/h; evaluated after 13 days. The method in brief:
as §1

In assay [8] the test system is Echinochloa crus-galli (ECHCG). The assay is described as follows: Glasshouse herbicide test, pre-emergence. The note with it: PRE Application; 500 g/h; evaluated after 13 days. The essentials:
as §1

In assay [9] the test system is Ipomoea hederacea (IPOHE). The assay is described as follows: Glasshouse herbicide test, pre-emergence. The following applies: PRE Application; 500 g/h; evaluated after 13 days. The method in brief:
as §1

Assay [10] relates to Setaria faberi (SETFA). The assay is described as follows: Glasshouse herbicide test, pre-emergence. The note with it: PRE Application; 500 g/h; evaluated after 13 days. The method in brief: as §1
Assay [11] concerns Amaranthus retroflexus (AMARE). Nature of the assay: Comparative experiment, post-emergence phytotoxicity. The note with it: POST Application; Rate 125 g/ha. The method, then: (§2) A comparative experiment is conducted to show the advantage provided by the compounds of the present invention. Thus the biological performance of representative compounds 1.001, 1.043, 2.002 & 2.024 of the present invention are compared with Compound C1, which is an aniline compound of the type referred to in WO2012/028579. Results are given as (%) phytotoxicity observed.

The test system of assay [12] is Setaria faberi (SETFA). The assay is described as above. The following applies: POST Application; Rate 125 g/ha. On the procedure:
as §2

Take `CCCON(C)c1c(S(C)(=O)=O)ccc(C(=O)Nc2nnc(C)o2)c1Cl` [Compound 2.024]: the “percentage damage caused to the plant, five point scale, ABUTH” value in [1] and in [6] was 5 (5=80-100%) in each case. Further, the “percentage damage caused to the plant, five point scale, AMARE” value in assay [2] and in assay [7] was 5 (5=80-100%) each time. Also, the “percentage damage caused to the plant, five point scale, ECHCG” value in assay [3] and in [8] was 5 (5=80-100%) throughout. The “percentage damage caused to the plant, five point scale, IPOHE” value in assay [4] and in assay [9] was 5 (5=80-100%) each time. Besides, the “percentage damage caused to the plant, five point scale, SETFA” value with Setaria faberi (SETFA) [5] and with Setaria faberi (SETFA) [10] was 5 (5=80-100%) each time. Also, the “(%) phytotoxicity observed, AMARE” value in [11] amounted to 80%. Also, the “(%) phytotoxicity observed, SETFA” value in the assay on Setaria faberi (SETFA) [12] came to 80%.
Turning to `CON(C(C)=O)c1c(C(F)(F)F)ccc(C(=O)Nc2nnc(C)o2)c1C` [Compound 2.002], the “percentage damage caused to the plant, five point scale, ABUTH” value in [1] and in assay [6] was 5 (5=80-100%) throughout. Moreover, the “percentage damage caused to the plant, five point scale, AMARE” value in [2] and in assay [7] was 5 (5=80-100%) in each case. Also, the “percentage damage caused to the plant, five point scale, ECHCG” value in assay [3] and in [8] was 5 (5=80-100%) each time. Moreover, the “percentage damage caused to the plant, five point scale, IPOHE” value in [4] and in [9] was 5 (5=80-100%) each time. The “percentage damage caused to the plant, five point scale, SETFA” value with Setaria faberi (SETFA) [5] and in the assay with Setaria faberi (SETFA) [10] was 5 (5=80-100%) in each case. Moreover, the “(%) phytotoxicity observed, AMARE” value in assay [11] worked out at 50%. Also, the “(%) phytotoxicity observed, SETFA” value with Setaria faberi (SETFA) [12] came out at 90%.
